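96-well plates; 48 h exposure; 5 concentrations. Endpoints by linear interpolation between flanking doses. Not reached: highest tested concentration assigned. At the TGI there is no net growth.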
Key:
Experiment in all cases: DTP human tumour cell line panel, 48 h
[1] = tested on: SNB-75 CNS
[2] = tested on: HCC-2998 colon
[3] = tested on: COLO 205 colon
[4] = tested on: RXF 393 renal
[5] = tested on: DU-145 prostate
[6] = tested on: SN12C renal
[7] = tested on: LOX IMVI melanoma
[8] = tested on: MOLT-4 leukemia
[9] = tested on: MDA-N
[10] = tested on: SK-MEL-5 melanoma
[11] = tested on: OVCAR-3 ovarian
[12] = tested on: NCI-H522 lung
[13] = tested on: UACC-257 melanoma
[14] = tested on: SF-295 CNS
[15] = tested on: NCI-H460 lung
[16] = tested on: IGROV1 ovarian
[17] = tested on: M14 melanoma
[18] = tested on: CCRF-CEM leukemia
[19] = tested on: UO-31 renal
[20] = tested on: SR leukemia
[21] = tested on: SF-539 CNS
[22] = tested on: BT-549 breast
[23] = tested on: U251 CNS
[24] = tested on: HL-60(TB) leukemia
[25] = tested on: A549 NSCLC
[26] = tested on: K-562 leukemia
[27] = tested on: SK-OV-3 ovarian
[28] = tested on: KM12 colon
[29] = tested on: PC-3 prostate
[30] = tested on: HOP-62 NSCLC
[31] = tested on: MCF7 breast
[32] = tested on: NCI/ADR-RES ovarian
[33] = tested on: CAKI-1 renal
[34] = tested on: MALME-3M melanoma
[35] = tested on: MDA-MB-435
[36] = tested on: HCT-116 colon
[37] = tested on: MDA-MB-231 breast
[38] = tested on: OVCAR-4 ovarian
[39] = tested on: HCT-15 colon
[40] = tested on: 786-0 renal
[41] = tested on: UACC-62 melanoma
[42] = tested on: NCI-H226 lung
[43] = tested on: RPMI-8226 leukemia
[44] = tested on: ACHN renal
[45] = tested on: HOP-92 NSCLC
[46] = tested on: NCI-H23 lung
[47] = tested on: HT29 colon
[48] = tested on: HS 578T breast
[49] = tested on: EKVX NSCLC
[50] = tested on: TK-10 renal
[51] = tested on: SK-MEL-28 melanoma
[52] = tested on: SK-MEL-2 melanoma
[53] = tested on: SW-620 colon
[54] = tested on: OVCAR-8 ovarian
[55] = tested on: SNB-19 CNS
[56] = tested on: OVCAR-5 ovarian
[57] = tested on: SF-268 CNS
[58] = tested on: T-47D breast
[59] = tested on: A498 renal

Q: For `COc1cccc(O)c1-c1cc(=O)c2c(O)c(OC)c(OC)c(OC)c2o1`, which TGI [1] is on record?
A: 76.1 µM

Q: And the TGI [2]?
A: 25.4 µM

Q: What about the TGI [3] of the same compound?
A: 39.1 µM

Q: What about the TGI [4] of the same compound?
A: 42.9 µM

Q: And the TGI [5]?
A: 58.9 µM

Q: What about the TGI [6] of the same compound?
A: 93.4 µM

Q: What about the TGI [7] of the same compound?
A: > 100 µM

Q: And the TGI [8]?
A: 97.7 µM

Q: What about the TGI [9] of the same compound?
A: 49.2 µM

Q: What about the TGI [10] of the same compound?
A: 39.4 µM

Q: What about the TGI [11] of the same compound?
A: 66.3 µM

Q: What about the TGI [12] of the same compound?
A: 87.9 µM

Q: And the TGI [13]?
A: 80.5 µM

Q: And the TGI [14]?
A: 76.6 µM

Q: What about the TGI [15] of the same compound?
A: 52.1 µM

Q: What about the TGI [16] of the same compound?
A: > 100 µM

Q: What about the TGI [17] of the same compound?
A: 68.4 µM

Q: What about the TGI [18] of the same compound?
A: > 100 µM

Q: What about the TGI [19] of the same compound?
A: > 100 µM

Q: And the TGI [20]?
A: 40.1 µM

Q: And the TGI [21]?
A: > 100 µM

Q: And the TGI [22]?
A: 73.6 µM

Q: And the TGI [23]?
A: > 100 µM

Q: What about the TGI [24] of the same compound?
A: 46.7 µM

Q: What about the TGI [25] of the same compound?
A: > 100 µM

Q: And the TGI [26]?
A: > 100 µM

Q: And the TGI [27]?
A: 89.3 µM

Q: What about the TGI [28] of the same compound?
A: 77.8 µM

Q: And the TGI [29]?
A: 66.7 µM

Q: And the TGI [30]?
A: 44.4 µM

Q: What about the TGI [31] of the same compound?
A: 77.7 µM

Q: And the TGI [32]?
A: 71.7 µM

Q: What about the TGI [33] of the same compound?
A: > 100 µM

Q: And the TGI [34]?
A: > 100 µM

Q: What about the TGI [35] of the same compound?
A: 55.4 µM

Q: What about the TGI [36] of the same compound?
A: > 100 µM

Q: What about the TGI [37] of the same compound?
A: > 100 µM

Q: What about the TGI [38] of the same compound?
A: > 100 µM

Q: What about the TGI [39] of the same compound?
A: > 100 µM

Q: And the TGI [40]?
A: > 100 µM

Q: And the TGI [41]?
A: 32.8 µM

Q: What about the TGI [42] of the same compound?
A: > 100 µM

Q: And the TGI [43]?
A: 58.4 µM

Q: And the TGI [44]?
A: > 100 µM

Q: And the TGI [45]?
A: 82.8 µM

Q: And the TGI [46]?
A: 85.5 µM

Q: And the TGI [47]?
A: 91 µM

Q: And the TGI [48]?
A: > 100 µM

Q: What about the TGI [49] of the same compound?
A: > 100 µM

Q: And the TGI [50]?
A: > 100 µM

Q: What about the TGI [51] of the same compound?
A: > 100 µM

Q: And the TGI [52]?
A: 52.4 µM

Q: What about the TGI [53] of the same compound?
A: > 100 µM

Q: What about the TGI [54] of the same compound?
A: > 100 µM

Q: What about the TGI [55] of the same compound?
A: > 100 µM

Q: And the TGI [56]?
A: > 100 µM

Q: What about the TGI [57] of the same compound?
A: > 100 µM

Q: How did the TGI [1] turn out when `Cc1c(CNc2ccc(Cl)c(Cl)c2Cl)cnc2nc(N)nc(N)c12` was run?
A: 24.3 µM

Q: What about the TGI [2] of the same compound?
A: > 100 µM

Q: And the TGI [3]?
A: 33.8 µM

Q: What about the TGI [4] of the same compound?
A: > 55.5 µM

Q: And the TGI [6]?
A: > 100 µM

Q: And the TGI [7]?
A: 13.6 µM

Q: And the TGI [8]?
A: 17.6 µM

Q: And the TGI [9]?
A: > 32 µM

Q: And the TGI [11]?
A: > 51.3 µM

Q: And the TGI [12]?
A: > 45.2 µM

Q: And the TGI [13]?
A: > 55.4 µM

Q: What about the TGI [14] of the same compound?
A: 3.16 µM

Q: What about the TGI [15] of the same compound?
A: > 48.9 µM

Q: What about the TGI [16] of the same compound?
A: > 49.3 µM

Q: And the TGI [17]?
A: > 100 µM

Q: What about the TGI [18] of the same compound?
A: 6.55 µM

Q: And the TGI [19]?
A: > 100 µM

Q: And the TGI [58]?
A: 24.9 µM

Q: And the TGI [20]?
A: > 57.9 µM

Q: What about the TGI [21] of the same compound?
A: 12.2 µM

Q: And the TGI [22]?
A: 50.8 µM

Q: And the TGI [23]?
A: > 46.5 µM

Q: And the TGI [24]?
A: 15.3 µM

Q: And the TGI [25]?
A: > 41.3 µM

Q: And the TGI [26]?
A: 5.14 µM

Q: And the TGI [27]?
A: > 52.4 µM

Q: And the TGI [28]?
A: > 100 µM

Q: What about the TGI [29] of the same compound?
A: > 49 µM

Q: And the TGI [30]?
A: > 43.5 µM

Q: And the TGI [31]?
A: > 46.7 µM

Q: What about the TGI [32] of the same compound?
A: > 100 µM

Q: And the TGI [33]?
A: > 100 µM

Q: What about the TGI [34] of the same compound?
A: > 100 µM

Q: And the TGI [35]?
A: > 48.1 µM

Q: And the TGI [36]?
A: 1.55 µM

Q: What about the TGI [38] of the same compound?
A: 31.1 µM

Q: What about the TGI [39] of the same compound?
A: > 100 µM

Q: And the TGI [40]?
A: > 50 µM

Q: What about the TGI [41] of the same compound?
A: 15.8 µM

Q: And the TGI [42]?
A: > 100 µM

Q: And the TGI [59]?
A: > 100 µM

Q: And the TGI [43]?
A: 49 µM

Q: And the TGI [44]?
A: > 48.8 µM

Q: What about the TGI [45] of the same compound?
A: > 62.8 µM

Q: And the TGI [46]?
A: > 49.3 µM

Q: And the TGI [47]?
A: > 53.9 µM

Q: And the TGI [48]?
A: 65.6 µM

Q: And the TGI [49]?
A: > 69 µM

Q: What about the TGI [50] of the same compound?
A: 48.3 µM

Q: What about the TGI [51] of the same compound?
A: 31.7 µM

Q: What about the TGI [52] of the same compound?
A: > 90 µM

Q: What about the TGI [53] of the same compound?
A: > 70.1 µM

Q: And the TGI [54]?
A: 1.41 µM

Q: And the TGI [55]?
A: > 59.9 µM

Q: What about the TGI [56] of the same compound?
A: > 50.4 µM

Q: What about the TGI [57] of the same compound?
A: > 45.5 µM

Q: For `O=[N+]([O-])c1ccc(-c2ccc([C@H]3CC(c4cc(F)c(Cl)cc4Cl)=NN3)o2)cc1`, which TGI [1] is on record?
A: 71.4 µM

Q: What about the TGI [2] of the same compound?
A: 38.7 µM

Q: And the TGI [4]?
A: > 100 µM

Q: And the TGI [5]?
A: > 100 µM

Q: And the TGI [6]?
A: > 100 µM

Q: What about the TGI [7] of the same compound?
A: > 100 µM

Q: What about the TGI [8] of the same compound?
A: 41 µM

Q: And the TGI [9]?
A: > 100 µM

Q: And the TGI [10]?
A: 32.2 µM

Q: What about the TGI [11] of the same compound?
A: > 100 µM

Q: And the TGI [12]?
A: > 100 µM

Q: And the TGI [13]?
A: > 100 µM

Q: What about the TGI [14] of the same compound?
A: > 100 µM

Q: And the TGI [15]?
A: > 100 µM

Q: What about the TGI [16] of the same compound?
A: > 100 µM

Q: What about the TGI [17] of the same compound?
A: > 100 µM

Q: What about the TGI [18] of the same compound?
A: 35.1 µM

Q: And the TGI [19]?
A: > 100 µM

Q: And the TGI [58]?
A: 61.8 µM

Q: What about the TGI [20] of the same compound?
A: 77.1 µM

Q: And the TGI [21]?
A: 30.1 µM

Q: What about the TGI [22] of the same compound?
A: 90.9 µM

Q: And the TGI [24]?
A: 16.2 µM

Q: What about the TGI [26] of the same compound?
A: > 100 µM

Q: And the TGI [27]?
A: > 100 µM

Q: What about the TGI [28] of the same compound?
A: > 100 µM

Q: What about the TGI [30] of the same compound?
A: > 100 µM

Q: What about the TGI [31] of the same compound?
A: > 100 µM

Q: What about the TGI [32] of the same compound?
A: 90.2 µM

Q: And the TGI [33]?
A: > 100 µM

Q: And the TGI [34]?
A: > 100 µM

Q: What about the TGI [35] of the same compound?
A: > 100 µM

Q: What about the TGI [36] of the same compound?
A: > 100 µM

Q: What about the TGI [38] of the same compound?
A: > 100 µM

Q: What about the TGI [39] of the same compound?
A: > 100 µM

Q: What about the TGI [40] of the same compound?
A: > 100 µM

Q: What about the TGI [41] of the same compound?
A: > 100 µM

Q: And the TGI [42]?
A: 58.9 µM

Q: What about the TGI [59] of the same compound?
A: > 100 µM

Q: What about the TGI [43] of the same compound?
A: > 100 µM

Q: What about the TGI [44] of the same compound?
A: > 100 µM

Q: What about the TGI [45] of the same compound?
A: > 100 µM

Q: And the TGI [46]?
A: 32.9 µM

Q: And the TGI [47]?
A: > 100 µM

Q: And the TGI [48]?
A: > 100 µM

Q: What about the TGI [49] of the same compound?
A: > 100 µM

Q: What about the TGI [50] of the same compound?
A: > 100 µM

Q: And the TGI [53]?
A: > 100 µM

Q: And the TGI [54]?
A: > 100 µM

Q: What about the TGI [55] of the same compound?
A: > 100 µM

Q: And the TGI [56]?
A: > 100 µM

Q: What about the TGI [57] of the same compound?
A: > 100 µM

From PubChem BioAssay (NCI)
